# Source: the supplement of paper PMC11061612
# What was measured:
# [1] = compound: C=CCn1c(=O)c2cnc(Nc3ccc(N4CCN(C)CC4)cc3)nc2n1-c1cccc(C(C)(C)O)n1 [AZD1775]; conditions: max 3 µM
# Procedure, shortened: (§1)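 In 1536-well plates, cancer cell lines in 7.5 μl DMEM/F12 or RPMI with 10% FBS spent 24 hours at 37°C and 5% CO2 and were then dosed for 72 hours with final DMSO typically 0.2%. Viability was read by CellTiter-Glo 2.0 luminescence and scaled between blank-well and DMSO-well means. The single-agent IC50 was fitted from dose responses using a logistic curve in a non-linear mixed effects model, and that logistic curve had two parameters.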
# [2] = compound: CC(=O)Nc1cccc(-n2c(=O)n(C3CC3)c(=O)c3c(Nc4ccc(I)cc4F)n(C)c(=O)c(C)c32)c1 [Trametinib]; conditions: max 1 µM
# Procedure, shortened: as §1
# [3] = compound: Cc1cc2ncnn2cc1Nc1ncc2c(n1)n(C1CCOCC1)c(=O)n2C [AZD7648]; conditions: max 10 µM
# Procedure, shortened: as §1
# [4] = compound: O=C(Nc1ccc2[nH]nc(-c3ccncc3)c2c1)[C@@H]1CCN(CC(=O)N2CCN(c3ccc(-c4ncccn4)cc3)CC2)C1; conditions: max 5 µM
# Procedure, shortened: as §1
# [5] = compound: COc1cc([C@@H]2c3cc4c(cc3[C@@H](O[C@@H]3O[C@@H]5CO[C@@H](C)O[C@H]5[C@H](O)[C@H]3O)[C@H]3COC(=O)[C@H]23)OCO4)cc(OC)c1O [Etoposide]; conditions: max 10 µM
# Procedure, shortened: as §1
# [6] = compound: C1CN(CCC1(C(=O)N[C@@H](CCO)C2=CC=C(C=C2)Cl)N)C3=NC=NC4=C3C=CN4 [AZD5363]; conditions: max 10 µM
# Procedure, shortened: as §1
# [7] = compound: Cc1nc(-c2cn3c(n2)-c2ccc(-c4cnn(C(C)(C)C(N)=O)c4)cc2OCC3)n(C(C)C)n1 [Taselisib]; conditions: max 10 µM
# Procedure, shortened: as §1
# [8] = compound: CC(=O)c1c(C)c2cnc(Nc3ccc(N4CCNCC4)cn3)nc2n(C2CCCC2)c1=O [Palbociclib]; conditions: max 10 µM
# Procedure, shortened: as §1
# [9] = compound: CCc1c2c(nc3ccc(O)cc13)-c1cc3c(c(=O)n1C2)COC(=O)[C@]3(O)CC [SN-38]; conditions: max 0.3 µM
# Procedure, shortened: as §1
# [10] = compound: CC1=CN2[C@@H](C1)C=NC3=CC(=C(C=C3C2=O)OC)OCCCCCOC4=C(C=C5C(=C4)N=C[C@@H]6CC(=CN6C5=O)C)OC [SG3199]; conditions: max 0.001 µM
# Procedure, shortened: as §1
# [11] = compound: COc1cc2ncnc(Nc3ccc(F)c(Cl)c3)c2cc1OCCCN1CCOCC1 [Gefitinib]; conditions: max 10 µM
# Procedure, shortened: as §1
# [12] = compound: C[C@@H](Nc1cc(F)cc(F)c1)c1cc(C(=O)N(C)C)cc2c(=O)cc(N3CCOCC3)oc12 [AZD8186]; conditions: max 10 µM
# Procedure, shortened: as §1
# [13] = compound: CC1=C(C(=CC=C1)Cl)NC(=O)C2=CN=C(S2)NC3=CC(=NC(=N3)C)N4CCN(CC4)CCO [Dasatinib]; conditions: max 2 µM
# Procedure, shortened: as §1
# [14] = compound: Nc1ccn([C@@H]2O[C@H](CO)[C@@H](O)C2(F)F)c(=O)n1 [Gemcitabine]; conditions: max 0.3 µM
# Procedure, shortened: as §1
# [15] = compound: COc1cccc2c1C(=O)c1c(O)c3c(c(O)c1C2=O)C[C@@](O)(C(=O)CO)C[C@@H]3O[C@H]1C[C@H](N)[C@H](O)[C@H](C)O1 [Doxorubicin]; conditions: max 1 µM
# Procedure, shortened: as §1
# [16] = compound: N#Cc1cnc(Nc2cc(NC[C@H]3CNCCO3)c(C(F)(F)F)cn2)cn1 [SRA737]; conditions: max 10 µM
# Procedure, shortened: as §1
# [17] = compound: Cc1c2c(nn1C)CSCc1cc(n(C)n1)CSc1cc(c3ccccc3c1)OCCCc1c(C(=O)O)n(C)c3c-2c(Cl)ccc13 [AZD5991]; conditions: max 1 µM
# Procedure, shortened: as §1
# [18] = compound: C[C@@H](Oc1cc(-c2cnn(C3CCNCC3)c2)cnc1N)c1c(Cl)ccc(F)c1Cl [Crizotinib]; conditions: max 10 µM
# Procedure, shortened: as §1
# [19] = compound: NC1(c2ccc(-c3nc4ccn5c(=O)[nH]nc5c4cc3-c3ccccc3)cc2)CCC1 [MK-2206]; conditions: max 10 µM
# Procedure, shortened: as §1
# [20] = compound: CCN(CCO)CCCOc1ccc2c(Nc3cc(CC(=O)Nc4cccc(F)c4)[nH]n3)ncnc2c1 [AZD2811]; conditions: max 1 µM
# Procedure, shortened: as §1
# [21] = compound: COc1nnc2ccc(N3CCC(c4ccc(OCCN5CCN(C)C(=O)[C@H]5C)cc4)CC3)nn12 [AZD5153]; conditions: max 1 µM
# Procedure, shortened: as §1
# [22] = compound: C[C@@H]1COCCN1C2=NC(=NC(=C2)C3(CC3)[S@](=N)(=O)C)C4=C5C=CNC5=NC=C4 [AZD6738]; conditions: max 10 µM
# Procedure, shortened: as §1
# [23] = compound: O=C(c1cc(Cc2n[nH]c(=O)c3ccccc23)ccc1F)N1CCN(C(=O)C2CC2)CC1 [Olaparib]; conditions: max 10 µM
# Procedure, shortened: as §1
# [24] = compound: CC(C)n1c(=O)n(C)c2cnc3cc(F)c(-c4ccc(OCCCN5CCCCC5)nc4)cc3c21 [AZD1390]; conditions: max 0.3 µM
# Procedure, shortened: as §1
# [25] = compound: CN(CC[C@H](CSC1=CC=CC=C1)NC2=C(C=C(C=C2)S(=O)(=O)NC(=O)C3=CC=C(C=C3)N4CCC(CC4)[C@H](C5=CC=CC=C5C6=CC=C(C=C6)Cl)O)S(=O)(=O)C(F)(F)F)CCO [AZD4320]; conditions: max 1 µM
# Procedure, shortened: as §1
# [26] = compound: CS(=O)(=O)CCNCc1ccc(-c2ccc3ncnc(Nc4ccc(OCc5cccc(F)c5)c(Cl)c4)c3c2)o1 [Lapatinib]; conditions: max 10 µM
# Procedure, shortened: as §1
# [27] = compound: C[C@@H](c1ccc2nccn2c1)n1nnc2ncc(-c3cnn(C)c3)nc21 [Savolitinib]; conditions: max 1 µM
# Procedure, shortened: as §1
# [28] = compound: CN(C)CCCOc1ccc(-c2ccc3ncc4c(c3c2)n(C2CCOCC2)c(=O)n4C)cn1 [AZD0156]; conditions: max 3 µM
# Procedure, shortened: as §1
# [29] = compound: O=c1[nH]cc(F)c(=O)[nH]1 [5-Fluorouracil]; conditions: max 20 µM
# Procedure, shortened: as §1
# [30] = compound: C1CC(C1)(C(=O)[O-])C(=O)[O-].N.N.[Pt+2] [Carboplatin]; conditions: max 10 µM
# Procedure, shortened: as §1
# [31] = compound: COc1cc(Nc2ncc3c(n2)-c2ccc(Cl)cc2C(c2c(F)cccc2OC)=NC3)ccc1C(=O)O [Alisertib]; conditions: max 10 µM
# Procedure, shortened: as §1
# [32] = compound: CC(=O)O[C@H]1C(=O)[C@@]2(C)[C@H]([C@H](OC(=O)c3ccccc3)[C@]3(O)C[C@H](OC(=O)[C@H](O)[C@@H](NC(=O)c4ccccc4)c4ccccc4)C(C)=C1C3(C)C)[C@]1(OC(C)=O)CO[C@@H]1C[C@@H]2O [Paclitaxel]; conditions: max 3 µM
# Procedure, shortened: as §1
# [33] = compound: CC1(C)CCC(CN2CCN(c3ccc(C(=O)NS(=O)(=O)c4ccc(NCC5CCOCC5)c([N+](=O)[O-])c4)c(Oc4cnc5[nH]ccc5c4)c3)CC2)=C(c2ccc(Cl)cc2)C1 [Venetoclax]; conditions: max 1 µM
# Procedure, shortened: as §1
# [34] = compound: Cn1cnc2c(F)c(Nc3ccc(Br)cc3Cl)c(C(=O)NOCCO)cc21 [Selumetinib]; conditions: max 10 µM
# Procedure, shortened: as §1
# [35] = compound: COc1cccc(OCCCN)c1-c1cc(Nc2cnc(C#N)cn2)n[nH]1 [Prexasertib]; conditions: max 1 µM
# Procedure, shortened: as §1
Cell Line,"IC50, cell viability 72 h [1]","IC50, cell viability 72 h [2]","IC50, cell viability 72 h [3]","IC50, cell viability 72 h [4]","IC50, cell viability 72 h [5]","IC50, cell viability 72 h [6]","IC50, cell viability 72 h [7]","IC50, cell viability 72 h [8]","IC50, cell viability 72 h [9]","IC50, cell viability 72 h [10]","IC50, cell viability 72 h [11]","IC50, cell viability 72 h [12]","IC50, cell viability 72 h [13]","IC50, cell viability 72 h [14]","IC50, cell viability 72 h [15]","IC50, cell viability 72 h [16]","IC50, cell viability 72 h [17]","IC50, cell viability 72 h [18]","IC50, cell viability 72 h [19]","IC50, cell viability 72 h [20]","IC50, cell viability 72 h [21]","IC50, cell viability 72 h [22]","IC50, cell viability 72 h [23]","IC50, cell viability 72 h [24]","IC50, cell viability 72 h [25]","IC50, cell viability 72 h [26]","IC50, cell viability 72 h [27]","IC50, cell viability 72 h [28]","IC50, cell viability 72 h [29]","IC50, cell viability 72 h [30]","IC50, cell viability 72 h [31]","IC50, cell viability 72 h [32]","IC50, cell viability 72 h [33]","IC50, cell viability 72 h [34]","IC50, cell viability 72 h [35]"
22RV1 (Prostate Carcinoma),> 3 µM,> 1 µM,> 10 µM,> 5 µM,> 10 µM,> 10 µM,1.86 µM,> 10 µM,0.0289 µM,> 0.001 µM,> 10 µM,> 10 µM,> 2 µM,0.101 µM,0.426 µM,> 10 µM,> 1 µM,> 10 µM,6.05 µM,> 1 µM,> 1 µM,> 10 µM,> 10 µM,> 0.3 µM,> 1 µM,> 10 µM,> 1 µM,> 3 µM,> 20 µM,> 10 µM,> 10 µM,0.0506 µM,> 1 µM,> 10 µM,> 1 µM
769-P (Kidney Carcinoma),0.874 µM,> 1 µM,> 10 µM,> 5 µM,> 10 µM,> 10 µM,> 10 µM,2.87 µM,0.159 µM,> 0.001 µM,8.48 µM,> 10 µM,0.253 µM,0.0243 µM,0.816 µM,1.54 µM,> 1 µM,4.59 µM,> 10 µM,> 1 µM,0.168 µM,1.5 µM,> 10 µM,> 0.3 µM,> 1 µM,5.24 µM,> 1 µM,> 3 µM,12.4 µM,> 10 µM,> 10 µM,0.109 µM,> 1 µM,> 10 µM,0.0406 µM
A2780 (Ovarian Carcinoma),0.813 µM,0.0391 µM,9.29 µM,0.243 µM,0.582 µM,1.83 µM,0.117 µM,1.16 µM,0.0113 µM,> 0.001 µM,> 10 µM,1.38 µM,> 2 µM,0.00845 µM,0.0483 µM,> 10 µM,0.964 µM,2.19 µM,1.61 µM,0.37 µM,0.0737 µM,3.65 µM,9.95 µM,> 0.3 µM,> 1 µM,> 10 µM,> 1 µM,> 3 µM,9.03 µM,> 10 µM,0.386 µM,0.00438 µM,> 1 µM,3.53 µM,0.334 µM
CGTH-W-1 (Thyroid Gland Carcinoma),> 3 µM,> 1 µM,> 10 µM,> 5 µM,> 10 µM,> 10 µM,9.16 µM,> 10 µM,0.0308 µM,> 0.001 µM,> 10 µM,> 10 µM,0.544 µM,0.119 µM,0.934 µM,> 10 µM,> 1 µM,> 10 µM,> 10 µM,> 1 µM,> 1 µM,> 10 µM,> 10 µM,> 0.3 µM,> 1 µM,> 10 µM,> 1 µM,> 3 µM,> 20 µM,> 10 µM,> 10 µM,2.59 µM,> 1 µM,> 10 µM,0.129 µM
EB2 (Burkitt's Lymphoma),0.348 µM,> 1 µM,> 10 µM,> 5 µM,0.198 µM,3.27 µM,2.02 µM,> 10 µM,0.00403 µM,> 0.001 µM,> 10 µM,4.92 µM,0.494 µM,0.0138 µM,0.0297 µM,1.03 µM,> 1 µM,6.78 µM,3.04 µM,> 1 µM,0.348 µM,1.63 µM,> 10 µM,> 0.3 µM,> 1 µM,> 10 µM,> 1 µM,> 3 µM,> 20 µM,> 10 µM,7.23 µM,0.0301 µM,> 1 µM,> 10 µM,0.0078 µM
